Assay results from patent publication US20240116873A1, “QUINOLINE MERCAPTOACETATE SULFONAMIDE DERIVATIVE, INTERMEDIATE, PHARMACEUTICAL DERIVATIVE OR FORMULATION, AND PREPARATION METHOD AND USE THEREFOR” (JIANGSU CHIATAI QINGJIANG PHARMACEUTICAL CO., LTD., priority 2022, published 2024).
Where two headings read alike, the source gives them in different places. Values belong to the compound of their own block, whether it stands above or below them.

Experiments:
hURAT1 = hURAT1 (Homo sapiens (Human), UniProt Q96S37); assay: In vitro inhibition of 14C-uric acid absorption in HEK-293T cells stably expressing hURAT1; assay type: cell-based
Procedure: It was to test the in vitro inhibitory activity (IC50) of the compound on hURAT1.
The culture medium included: a DMEM culture medium+10% of fetal calf serum+500 μg/ml G418+1% of P/S. • (2) When the cells grew to 80% full, the culture medium was removed, PBS was added to clean the cells once, and then pancreatin-EDTA was added for digestion. The culture medium was added when the cells were subjected to wall removal, and subjected to blowing and beating to make the cells fall off. The cells were centrifuged and collected. The culture medium was added, and subjected to blowing and beating to form cell suspension. • (3) The cell density was adjusted to be 7×10^5/ml, then the cells were inoculated into a 96-well cell culture plate with white wall and transparent bottom according to the amount of 100 μL/well, and cultured for 12-24 h.
3.3 Preparation of compounds • (1) The compound was prepared into a mother solution with a concentration of 20 mM by DMSO, the mother solution was diluted to reach a concentration of 1 mM by DMSO, and then the solution was added into 96 wells. • (2) Quality control compounds were additionally arranged on the 96-well plate, so as to obtain a 100 x compound plate. • (3) The solutions in corresponding wells of another 96-well plate were diluted 50 times by the Cl-free HBSS buffer solution, so as to obtain a 2 x compound plate (plate 2). • (4) A buffer solution containing 0.1 μCi/ml 14C-uric acid at a density of 30 μL/well and a 2 x diluted compound at a density of 30 μL/well into a new 96-well plate, so as to obtain a 1 x compound plate (plate 1) for later use.
3.4 Absorption of ^14C-uric acid in cells stably expressing hURAT1 • (1) An absorption test may be performed after cells in the 96-well plate were cultured and adhered to the wall. • (2) The cells were washed once by the preheated buffer solution at a density of 200 μL/well. • (3) The cells in each well were completely absorbed, and then the corresponding compounds and 0.1 μCi/ml 14C-uric acid solution were immediately added at a density of 50 μL/well. • (4) The plate added with the compounds was incubated in an incubator at 37° C. for 5 min. • (5) 150 μL of ice-cold buffer solution was immediately added into each well to stop absorption. Each well was washed for three times with the buffer solution.

OAT1 = OAT1 (Homo sapiens (Human), UniProt Q4U2R8); assay: Inhibitory effect on transporter OAT1
Procedure: (§1) The IC50 of compounds on URAT1, OAT1, OAT3, and OAT4 was tested, thereby providing research data for clinical application and further development of drugs.

OAT3 = OAT3 (Homo sapiens (Human), UniProt Q8TCC7); assay: Inhibitory effect on transporter OAT3
Procedure: as §1

[1] = test system: rat model of hyperuricemia; assay: Rat model of hyperuricemia induced by oteracil potassium and hypoxanthine; assay type: in vivo; details: P<0.05
Procedure: Oteracil potassium was combined with hypoxanthine to induce a rat model of hyperuricemia for effective dose exploration and dose-effect relationship research. Oteracil potassium feed was adopted for feeding to induce the rat model of hyperuricemia for time-effect relationship, pathological state-based functional mechanism confirmation, and PK-PD researches.
In the experiment, the rat model of hyperuricemia was prepared by intragastric administration of hypoxanthine and intraperitoneal injection of oteracil potassium. The single intragastric administration dose of the compound shown in Formula 1 was set to be 5 mg/kg, 10 mg/kg, 20 mg/kg, and 40 mg/kg. The single intragastric administration dose of Lesinurad in the positive control groups was set to be 10 mg/kg, 20 mg/kg, 40 mg/kg, and 80 mg/kg. […] Moreover, the compounds had no significant effect on the renal coefficient, further verifying the good safety of this product at the effective dose.

OAT4 = OAT4 (Homo sapiens (Human), UniProt Q9NSA0); assay: Inhibitory effect on transporter OAT4
Procedure: as §1

[2] = curve-fit parameter, hURAT1 inhibition, superscript 1 = plate1, 2 = plate2

hURAT1, sequence (Q96S37 whole entry): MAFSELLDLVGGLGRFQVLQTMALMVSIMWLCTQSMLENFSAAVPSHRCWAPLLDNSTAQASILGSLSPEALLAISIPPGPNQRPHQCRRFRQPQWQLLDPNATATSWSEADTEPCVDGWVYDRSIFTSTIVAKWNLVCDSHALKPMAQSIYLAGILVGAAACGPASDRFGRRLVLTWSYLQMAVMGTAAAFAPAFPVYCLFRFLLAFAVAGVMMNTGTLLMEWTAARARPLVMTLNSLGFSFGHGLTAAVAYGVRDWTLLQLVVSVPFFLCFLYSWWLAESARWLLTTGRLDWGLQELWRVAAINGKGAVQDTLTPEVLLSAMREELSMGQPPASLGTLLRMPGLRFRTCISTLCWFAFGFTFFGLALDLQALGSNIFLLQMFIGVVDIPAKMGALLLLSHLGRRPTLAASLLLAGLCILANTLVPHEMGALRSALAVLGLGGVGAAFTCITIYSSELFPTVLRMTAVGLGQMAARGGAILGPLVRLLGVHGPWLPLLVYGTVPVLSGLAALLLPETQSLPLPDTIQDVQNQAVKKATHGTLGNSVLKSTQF
OAT1, sequence (Q4U2R8 whole entry): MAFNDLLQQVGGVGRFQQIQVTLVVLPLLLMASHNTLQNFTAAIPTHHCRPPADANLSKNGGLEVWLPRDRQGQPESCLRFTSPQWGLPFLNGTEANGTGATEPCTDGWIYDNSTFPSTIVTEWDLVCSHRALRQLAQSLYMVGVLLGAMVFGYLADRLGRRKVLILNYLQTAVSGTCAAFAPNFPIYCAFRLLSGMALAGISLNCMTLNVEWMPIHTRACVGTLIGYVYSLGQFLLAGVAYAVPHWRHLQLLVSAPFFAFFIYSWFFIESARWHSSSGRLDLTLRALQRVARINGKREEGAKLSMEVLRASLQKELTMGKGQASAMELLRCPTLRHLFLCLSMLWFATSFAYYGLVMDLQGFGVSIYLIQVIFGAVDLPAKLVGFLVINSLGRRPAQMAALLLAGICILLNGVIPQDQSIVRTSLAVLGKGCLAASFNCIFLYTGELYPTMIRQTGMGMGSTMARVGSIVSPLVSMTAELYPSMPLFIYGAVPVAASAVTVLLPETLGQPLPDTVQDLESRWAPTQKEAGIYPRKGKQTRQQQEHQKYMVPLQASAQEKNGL
OAT3, sequence (Q8TCC7 whole entry): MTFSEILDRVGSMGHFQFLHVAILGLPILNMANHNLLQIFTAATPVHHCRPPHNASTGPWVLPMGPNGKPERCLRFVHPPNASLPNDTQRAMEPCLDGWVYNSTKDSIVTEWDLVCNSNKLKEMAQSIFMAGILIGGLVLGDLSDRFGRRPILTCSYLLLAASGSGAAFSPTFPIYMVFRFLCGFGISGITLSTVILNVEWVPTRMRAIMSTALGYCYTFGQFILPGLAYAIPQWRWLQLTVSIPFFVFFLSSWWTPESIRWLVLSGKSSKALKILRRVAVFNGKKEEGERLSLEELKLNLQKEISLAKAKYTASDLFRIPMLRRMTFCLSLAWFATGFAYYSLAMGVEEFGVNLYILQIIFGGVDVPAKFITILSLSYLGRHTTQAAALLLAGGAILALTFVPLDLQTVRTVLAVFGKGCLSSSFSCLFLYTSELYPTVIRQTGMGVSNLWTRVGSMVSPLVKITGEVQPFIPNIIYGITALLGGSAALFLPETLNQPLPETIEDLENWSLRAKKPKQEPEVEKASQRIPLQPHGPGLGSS
OAT4, sequence (Q9NSA0 whole entry): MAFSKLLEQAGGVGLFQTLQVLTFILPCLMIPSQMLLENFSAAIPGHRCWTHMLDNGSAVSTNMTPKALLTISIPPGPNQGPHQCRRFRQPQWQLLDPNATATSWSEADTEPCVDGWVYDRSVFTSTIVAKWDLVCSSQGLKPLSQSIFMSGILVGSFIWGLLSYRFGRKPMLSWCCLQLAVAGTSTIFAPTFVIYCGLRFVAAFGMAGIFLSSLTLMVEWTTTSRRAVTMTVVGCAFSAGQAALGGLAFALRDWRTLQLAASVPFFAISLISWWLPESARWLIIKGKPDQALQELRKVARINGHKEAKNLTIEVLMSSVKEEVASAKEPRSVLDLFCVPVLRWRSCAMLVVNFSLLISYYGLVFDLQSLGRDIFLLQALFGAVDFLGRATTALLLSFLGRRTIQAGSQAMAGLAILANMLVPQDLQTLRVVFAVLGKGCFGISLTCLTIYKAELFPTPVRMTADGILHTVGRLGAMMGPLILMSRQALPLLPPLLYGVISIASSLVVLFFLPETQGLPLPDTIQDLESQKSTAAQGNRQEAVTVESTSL

Structure (SMILES): CC(C)(Sc1ccnc2ccc(C(F)(F)F)cc12)C(=O)NS(C)(=O)=O [D]
- IC50 (OAT1): 12.7 µM
- IC50 (OAT3): > 100 µM

Structure (SMILES): CCCN(CCC)S(=O)(=O)c1ccc(C(=O)O)cc1 [Probenecid]
- inhibitory effect on drug transporter OAT4 (in words) (OAT4): a certain inhibitory effect

Structure (SMILES): CC(C)(Sc1ccncc1-c1ccc(C#N)c2ccccc12)C(=O)O [Verinuard, Verinurad]
- BOTTOM (hURAT1; [2]): 0.00
- HILLSLOPE (hURAT1; [2]): 0.75
- TOP (hURAT1; [2]): 96.94
- IC50 (hURAT1; hURAT1, HEK-293T, 14C-uric acid, 5 min at 37° C., superscript 1 = plate1, 2 = plate2): 54.5 nM

The next lines start with results.

- BOTTOM (hURAT1): 6.1
- HILLSLOPE (hURAT1): 1.20
- TOP (hURAT1): 99.1
Structure (SMILES): CCc1oc2ccccc2c1C(=O)c1cc(Br)c(O)c(Br)c1 [Benzbromarone]

- renal coefficient ([1]; rats, single intragastric dose 80 mg/kg): increased significantly
Structure (SMILES): O=C(O)CSc1nnc(Br)n1-c1ccc(C2CC2)c2ccccc12 [Lesinurad]
- serum uric acid level ([1]; model rats, single intragastric dose 40 mg/kg, vs model control group): significantly reduce
